{
  "source": "paper PMC5051147",
  "about": "“Ester Hydrolysis Differentially Reduces Aconitine-Induced Anti-hypersensitivity and Acute Neurotoxicity: Involvement of Spinal Microglial Dynorphin Expression and Implications for Aconitum Processing” (Frontiers in Pharmacology, 2016)",
  "key": {"[1]": {"tested_on": "mechanical allodynia in spinal L5/L6 nerve–ligated neuropathic rats", "assay": "Mechanical allodynia (von Frey paw withdrawal threshold) after intrathecal injection in spinal nerve-ligated neuropathic rats", "format": "in vivo, rat", "protocol": "(§1) An 18-cm polyethylene catheter (PE-10: 0.28-mm inner diameter and 0.61-mm outer diameter, Clay Adams, Parsippany, NJ, USA) with a volume of 13 μL was inserted into the lumbar level of the spinal cord as described elsewhere under inhalational isoflurane anesthesia (4% for induction and 1% for maintenance) run by an anesthesia meter (Ugo Basile Gas Anesthesia System, Comerio, Italy). Two days after recovery from anesthesia, the placement of the catheter in the spinal cord was verified by administration of 4% lidocaine (10 μL, followed by 15 μL of saline for flushing). Rats that had no motor impairment after placement of the intrathecal catheter were considered for the study, and rats that developed immediate bilateral paralysis of the hindlimbs after intrathecal administration of lidocaine were selected for the study. For intrathecal administration of the control and test articles, 10 μL of each drug was injected with a 50-μL microinjector (Shanghai Anting Micro-Injector Factory, Shanghai, China) and was flushed with 15 μL of normal saline solution.\n(§2) To induce hypersensitivity to neuropathic pain, the rats were subjected to spinal nerve ligation as previously described [Kim and Chung (1992)] and [Zhang et al. (2013)]. Unilateral ligation of the L5 and L6 spinal nerves was performed under inhalational isoflurane anesthesia (4% for induction and 1% for maintenance) run by an anesthesia meter (Ugo Basile Gas Anesthesia System). The left L5 and L6 spinal nerves were isolated and tightly ligated with 6-0 silk thread. After ligation, the wound was sutured and the rats were returned to their home cages for recovery. After spinal nerve ligation, only those rats with marked unilateral allodynia to mechanical stimulation (i.e., a hindpaw withdrawal threshold of less than 8 g on the operated side) and with no major impairment were included in the study. Drug testing started 2–4 weeks after spinal nerve ligation.\nTo evaluate mechanical allodynia, the animals were acclimatized for at least 30 min to the test environment, namely, a plexiglass box on a metal grid (0.5 cm × 0.5 cm). The hindpaw withdrawal threshold was measured with a 2450 CE Electronic von Frey hair (IITC Life Science Inc, Woodland Hill, CA, USA). An electronic handheld transducer with a No. 15 monofilament was applied perpendicularly to the medial surface of the hindpaws with increasing force (ranging from 0.1 to 90 g) until the rat suddenly withdrew or licked the hindpaw. The lowest force that produced a withdrawal response was considered to be the threshold, which was the mean of three repeated measurements made in a 5-min interval.\n(§3) The percentage of maximal possible effect (% MPE) was calculated using the following formula: (postdrug threshold in ipsilateral hindlimb – baseline threshold in ipsilateral hindlimb)/(baseline threshold in contralateral hindlimb – baseline threshold in ipsilateral hindlimb) × 100 ([Bowersox et al., 1996]). A % MPE value near 100 indicates normal mechanical thresholds (i.e., near contralateral thresholds), and a value near 0 indicates allodynia. For the dose-response curve analysis, the parameters (i.e., minimum effect; Emax, median effective concentration or dose, or median toxic or lethal dose [EC50, ED50, TD50, or LD50], and Hill coefficient [n]) were calculated from the individual dose-response curves using the Prism program (version 5.01, GraphPad Software, San Diego, CA, USA). To determine the parameters of the dose-response curves, the values of response (Y) were fitted by non-linear least-squares curves to the relation Y = a + bx, where x = [D]^n/(ED50^n + [D]^n), [C]^n/(EC50^n + [C]^n), [D]^n/(TD50^n + [D]^n) or [D]^n/(LD50^n + [D]^n), to give each value of ED50, EC50, TD50, or LD50 and b (Emax) yielding a minimum residual sum of squares of deviations from the theoretical curve ([Wang and Pang, 1993])."}, "[2]": {"tested_on": "heat hyperalgesia in spinal L5/L6 nerve–ligated neuropathic rats", "assay": "Heat hyperalgesia (radiant heat paw withdrawal latency) after intrathecal injection in spinal nerve-ligated neuropathic rats", "format": "in vivo, rat", "protocol": "as §1, §2\nTo assess heat hyperalgesia, the rats were put in a plexiglass box on an elevated glass surface. After an adaptation period of at least 30 min, radiant heat was applied to the plantar medial surface of each hindpaw. The hindpaw withdrawal latency was measured with a Model 390G Plantar Test Analgesia Meter (IITC Life Science Inc.). To prevent tissue damage, the latency cutoff was set at 30 s. The paw withdrawal latency was defined as the time from the onset of radiant heat application to the withdrawal of the hindpaw. Both hindpaws were tested independently three times with a 5-min interval between trials. The result for each test was calculated as the mean of the three repeated measurements.\nas §3, with “To determine the parameters of the dose-response curves, the values of response (Y) were fitted by non-linear least-squares curves to the relation Y = a + bx, where x = [D]^n/(ED50^n + [D]^n), [C]^n/(EC50^n + [C]^n), [D]^n/(TD50^n + [D]^n) or [D]^n/(LD50^n + [D]^n), to give each value of ED50, EC50, TD50, or LD50 and b (Emax) yielding a minimum residual sum of squares of deviations from the theoretical curve ([Wang and Pang, 1993]).” left out"}},
  "note": "Entries after “also recorded” stand apart in the source; their conditions may differ.",
  "data": [
    {"smiles": "CCN1C[C@]2(COC)[C@H](O)C[C@H](OC)[C@@]34[C@@H]5C[C@@]6(O)[C@H](OC(=O)c7ccccc7)[C@@H]5[C@@](OC(C)=O)([C@@H]([C@H](OC)[C@H]23)[C@@H]14)[C@@H](O)[C@@H]6OC", "note": "[Aconitine, aconitine]", "values": [
      {"measurement": "Anti-allodynic effect in ipsilateral paws", "setting": "[1]; intrathecal 100 ng", "value": "marked and reversible anti-allodynic effect; also recorded: marked and reversible anti-allodynia"},
      {"measurement": "Time of peak effect on mechanical allodynia and heat hyperalgesia", "setting": "[1]; intrathecal, ipsilateral paws, after injection", "value": 1, "unit": "h"},
      {"measurement": "Emax, blockade of mechanical allodynia", "setting": "[1]; intrathecal, 1 h after injection", "value": 61.9, "unit": "% MPE"},
      {"measurement": "ED50, blockade of mechanical allodynia", "setting": "[1]; intrathecal, % MPE at 1 h after injection", "value": 39, "unit": "pmol"},
      {"measurement": "Effect on withdrawal responses in the contralateral paws", "setting": "[1]; intrathecal, mechanical and thermal stimuli", "value": "did not significantly alter the withdrawal responses in the contralateral paws"},
      {"measurement": "Emax, blockade of thermal hyperalgesia", "setting": "[2]; 1 h after injection", "value": 100, "unit": "% MPE"},
      {"measurement": "ED50, blockade of thermal hyperalgesia", "setting": "[2]; % MPE at 1 h after injection", "value": 32, "unit": "pmol"}
    ]}
  ]
}
